# From patent publication US7592160B2, “Processes for producing isomaltose and isomaltitol and use thereof” (Kabushiki Kaisha Hayashibara Seibutsu Kagaku Kenkyujo, priority 2001, dated 2009)
# Legend:
# [1] = tested on: α-isomaltosylglucosaccharide-forming enzyme; test: Action on saccharides as substrates (TLC), enzyme of C11 strain; format: biochemical, Bacillus globisporus C11 strain; parameters: key: −: it showed no change; +: it showed a slight reduction of the color spot of the substrate and the formation of other reaction product; ++: it showed a high reduction of the color spot of the substrate and the formation of other reaction product; +++: it showed a substantial disappearance of the substrate spot and the formation of other reaction product; settings: two units/g substrate, substrate 2% (w/v), 30° C., pH 6.0, 24 hours
# Text: (§1) To examine the saccharides in the supernatant, they were separated by developing twice on silica gel thin-layer chromatography (abbreviated as “TLC” hereinafter) using, as a developer, a mixture solution of n-butanol, pyridine, and water (=6:4:1 by volume), and, as a thin-layer plate, “[…]™ 60”, an aluminum plate (20×20 cm) for TLC commercialized by Merck & Co., Inc., Rahway, USA. The coloration of the separated total sugars by the sulfuric acid-methanol method and that of the reducing saccharides by the diphenylamine-aniline method detected a non-reducing saccharide positive at an Rf value of about 0.31 on the former detection method but negative on the latter detection method.
# (§2) It was tested whether any saccharides can be used as substrates for α-isomaltosylglucosaccharide-forming enzyme. For the purpose, a solution of maltose, maltotriose, maltotetraose, maltopentaose, maltohexaose, maltoheptaose, isomaltose, isomaltotriose, panose, isopanose, α,α-trehalose, kojibiose, nigerose, neotrehalose, cellobiose, gentibiose, maltitol, maltotriitol, lactose, sucrose, erlose, selaginose, maltosyl glucoside, or isomaltosyl glucoside was prepared.
# (§3) To each of the above solutions was added two units/g substrate of a purified specimen of α-isomaltosylglucosaccharide-forming enzyme from either Bacillus globisporus C9 strain obtained by the method in Experiment 4-2, Bacillus globisporus C11 strain obtained by the method in Experiment 7-2, Bacillus globisporus N75 strain obtained by the method in Experiment 11-2, or Arthrobacter globiformis A19 strain obtained by the method in Experiment 15-2, and the resulting each solution was adjusted to give a substrate concentration of 2% (w/v) and incubated at 30° C. and pH 6.0 for 24 hours, except for using pH 8.4 for the enzyme from Arthrobacter globiformis A19 strain. The enzyme solutions before and after the enzymatic reactions were respectively analyzed on TLC disclosed in Experiment 1 to confirm whether the enzymes acted on these substrates.
# [2] = tested on: α-isomaltosylglucosaccharide-forming enzyme; test: Action on saccharides as substrates (TLC), enzyme of N75 strain; format: biochemical, Bacillus globisporus N75 strain; parameters: key: −: it showed no change; +: it showed a slight reduction of the color spot of the substrate and the formation of other reaction product; ++: it showed a high reduction of the color spot of the substrate and the formation of other reaction product; +++: it showed a substantial disappearance of the substrate spot and the formation of other reaction product; settings: two units/g substrate, substrate 2% (w/v), 30° C., pH 6.0, 24 hours
# Text: as §1, §2, §3
# [3] = tested on: α-isomaltosylglucosaccharide-forming enzyme; test: Transfer-acceptor specificity, enzyme of A19 strain; format: biochemical, Arthrobacter globiformis A19 strain; settings: acceptor 1.6%, PINE-DEX #100 donor 4%, one unit/g donor, 30° C., pH 8.4, 24 hours
# Protocol: (§4) Using various saccharides, it was tested whether the saccharides were used as transferring-acceptors for α-isomaltosylglucosaccharide-forming enzyme. A solution of D-glucose, D-xylose, L-xylose, D-galactose, D-fructose, D-mannose, D-arabinose, D-fucose, D-psicose, L-sorbose, L-rhamnose, methyl-α-glucopyranoside, methyl-β-glucopyranoside, N-acetyl-glucosamine, sorbitol, α,α-trehalose, isomaltose, isomaltotriose, cellobiose, gentibiose, glycerol, maltitol, lactose, sucrose, α-cyclodextrin, β-cyclodextrin, γ-cyclodextrin, or L-ascorbic acid was prepared. To each solution with a saccharide concentration of 1.6% was added “PINE-DEX #100”, a partial starch hydrolyzate, as a saccharide donor, to give a concentration of 4%, and admixed with one unit/g saccharide donor, d.s.b., of either of purified specimens of α-isomaltosylglucosaccharide-forming enzyme from Bacillus globisporus C9 strain obtained by the method in Experiment 4-2, Bacillus globisporus C11 strain obtained by the method in Experiment 7-2, Bacillus globisporus N75 strain obtained by the method in Experiment 11-2, or Arthrobacter globiformis A19 strain obtained by the method in Experiment 15-2, and incubated at 30° C. and pH 6.0 for 24 hours, except that pH 8.4 was used for the enzyme from Arthrobacter globiformis A19 strain. The reaction mixtures of the post-enzymatic reactions were analyzed on gas chromatography (abbreviated as “GLC” hereinafter) for monosaccharides and disaccharides as acceptors, and on HPLC for trisaccharides as acceptors to confirm whether these saccharides could be used as the transfer acceptors of the above enzymes. In the case of performing GLC, the following apparatuses and conditions were used: GLC apparatus, “GC-16A” commercialized by Shimadzu Corporation, Tokyo, Japan; column, a stainless-steel column, 3 mm in diameter and 2 m in length, packed with 2% “SILICONE OV-17/CHROMOSOLV W”, commercialized by GL Sciences Inc., Tokyo, Japan; carrier gas, nitrogen gas at a flow rate of 40 ml/min under temperature conditions of increasing from 160° C. to 320° C. at an increasing temperature rate of 7.5° C./min; and detection, a hydrogen flame ionization detector. In the case of performing HPLC analysis, the following apparatuses and conditions were used: HPLC apparatus, “CCPD” commercialized by Tosoh Corporation, Tokyo, Japan; column, “ODS-AQ-303” commercialized by YMC Co., Ltd., Tokyo, Japan; eluent, water at a flow rate of 0.5 ml/min; and detection, a differential refractometer.
# [4] = tested on: α-isomaltosylglucosaccharide-forming enzyme; test: Action on saccharides as substrates (TLC), enzyme of C9 strain; format: biochemical, Bacillus globisporus C9 strain; parameters: key: −: it showed no change; +: it showed a slight reduction of the color spot of the substrate and the formation of other reaction product; ++: it showed a high reduction of the color spot of the substrate and the formation of other reaction product; +++: it showed a substantial disappearance of the substrate spot and the formation of other reaction product; settings: two units/g substrate, substrate 2% (w/v), 30° C., pH 6.0, 24 hours
# Text: as §1, §2, §3
# [5] = tested on: α-isomaltosylglucosaccharide-forming enzyme; test: Action on saccharides as substrates (TLC), enzyme of A19 strain; format: biochemical, Arthrobacter globiformis A19 strain; parameters: key: −: it showed no change; +: it showed a slight reduction of the color spot of the substrate and the formation of other reaction product; ++: it showed a high reduction of the color spot of the substrate and the formation of other reaction product; +++: it showed a substantial disappearance of the substrate spot and the formation of other reaction product; settings: two units/g substrate, substrate 2% (w/v), 30° C., pH 8.4, 24 hours
# Text: as §1, §2, §3
# [6] = tested on: α-isomaltosylglucosaccharide-forming enzyme; test: Transfer-acceptor specificity, enzyme of C11 strain; format: biochemical, Bacillus globisporus C11 strain; settings: acceptor 1.6%, PINE-DEX #100 donor 4%, one unit/g donor, 30° C., pH 6.0, 24 hours
# Protocol: as §4
# [7] = tested on: α-isomaltosylglucosaccharide-forming enzyme; test: Transfer-acceptor specificity, enzyme of C9 strain; format: biochemical, Bacillus globisporus C9 strain; settings: acceptor 1.6%, PINE-DEX #100 donor 4%, one unit/g donor, 30° C., pH 6.0, 24 hours
# Protocol: as §4
# [8] = tested on: α-isomaltosylglucosaccharide-forming enzyme; test: Transfer-acceptor specificity, enzyme of N75 strain; format: biochemical, Bacillus globisporus N75 strain; settings: acceptor 1.6%, PINE-DEX #100 donor 4%, one unit/g donor, 30° C., pH 6.0, 24 hours
# Protocol: as §4
SMILES,"Enzymatic action, Enzyme of C11 strain [1]","Enzymatic action, Enzyme of N75 strain [2]","Enzymatic action, Enzyme of C9 strain [4]","Enzymatic action, Enzyme of A19 strain [5]","Product of transferring reaction, Enzyme of A19 strain [3]","Product of transferring reaction, Enzyme of C11 strain [6]","Product of transferring reaction, Enzyme of C9 strain [7]","Product of transferring reaction, Enzyme of N75 strain [8]"
"OC[C@H]1O[C@@H](OC[C@H]2OC(O)[C@H](O)[C@@H](O)[C@@H]2O)[C@H](O)[C@@H](O)[C@@H]1O (stereo partly shown) [Gentibiose, gentibiose]",−,−,−,−,+ (a saccharide-transferred product was detected in an amount over one percent but less than 10% through transfer reaction to acceptor),++ (a saccharide-transferred product was detected in an amount over ten percent through transfer reaction to acceptor),++ (a saccharide-transferred product was detected in an amount over ten percent through transfer reaction to acceptor),++ (a saccharide-transferred product was detected in an amount over ten percent through transfer reaction to acceptor)
"OC[C@H]1O[C@H](OC[C@H]2OC(O)[C@H](O)[C@@H](O)[C@@H]2O)[C@H](O)[C@@H](O)[C@@H]1O (stereo partly shown) [Isomaltose, isomaltose]",−,−,−,−,+ (a saccharide-transferred product was detected in an amount over one percent but less than 10% through transfer reaction to acceptor),++ (a saccharide-transferred product was detected in an amount over ten percent through transfer reaction to acceptor),++ (a saccharide-transferred product was detected in an amount over ten percent through transfer reaction to acceptor),++ (a saccharide-transferred product was detected in an amount over ten percent through transfer reaction to acceptor)
"OC[C@H]1O[C@H](OC[C@H]2O[C@H](OC[C@H]3OC(O)[C@H](O)[C@@H](O)[C@@H]3O)[C@H](O)[C@@H](O)[C@@H]2O)[C@H](O)[C@@H](O)[C@@H]1O (stereo partly shown) [Isomaltotriose, isomaltotriose]",−,−,−,−,± (a saccharide-transferred product was detected in an amount less than one percent through transfer reaction to acceptor),++ (a saccharide-transferred product was detected in an amount over ten percent through transfer reaction to acceptor),++ (a saccharide-transferred product was detected in an amount over ten percent through transfer reaction to acceptor),++ (a saccharide-transferred product was detected in an amount over ten percent through transfer reaction to acceptor)

# More lines, main results first:
"Enzymatic action, Enzyme of C11 strain [1]","Enzymatic action, Enzyme of N75 strain [2]","Enzymatic action, Enzyme of C9 strain [4]","Enzymatic action, Enzyme of A19 strain [5]",SMILES,"Product of transferring reaction, Enzyme of A19 strain [3]","Product of transferring reaction, Enzyme of C11 strain [6]","Product of transferring reaction, Enzyme of C9 strain [7]","Product of transferring reaction, Enzyme of N75 strain [8]"
−,−,−,−,"O=C[C@H](O)[C@@H](O)[C@H](O[C@@H]1O[C@H](CO)[C@@H](O)[C@H](O)[C@H]1O)[C@H](O)CO [Cellobiose, cellobiose]",++ (a saccharide-transferred product was detected in an amount over ten percent through transfer reaction to acceptor),++ (a saccharide-transferred product was detected in an amount over ten percent through transfer reaction to acceptor),++ (a saccharide-transferred product was detected in an amount over ten percent through transfer reaction to acceptor),++ (a saccharide-transferred product was detected in an amount over ten percent through transfer reaction to acceptor)
−,−,−,−,"OC[C@H]1O[C@@H](O[C@H]2[C@H](O)[C@@H](O)C(O)O[C@@H]2CO)[C@H](O)[C@@H](O)[C@H]1O (stereo partly shown) [Lactose, lactose]",++ (a saccharide-transferred product was detected in an amount over ten percent through transfer reaction to acceptor),++ (a saccharide-transferred product was detected in an amount over ten percent through transfer reaction to acceptor),++ (a saccharide-transferred product was detected in an amount over ten percent through transfer reaction to acceptor),++ (a saccharide-transferred product was detected in an amount over ten percent through transfer reaction to acceptor)
